Reference: patent US20230022724A1, “NOVEL IMIDAZOPYRAZINE DERIVATIVES” (Hoffmann-La Roche Inc., priority 2018, published 2023)
Structures can show the parent of a compound that is named as a salt.

Tested on: Acinetobacter baumannii ATCC17978
Experiment: Antimicrobial susceptibility testing: 90% growth inhibitory concentration (IC90) determination
Format: cell-based
Settings: 90% growth inhibitory concentration, Acinetobacter baumannii ATCC17978, Iso-Sensitest broth, OD 600 nm over 16 h; read-out: ATCC17978 IC90
Protocol: The in vitro antimicrobial activity of the compounds was determined according to the following procedure:
The assay used a 10-points Iso-Sensitest broth medium to measure quantitatively the in vitro activity of the compounds against Acinetobacter baumannii ATCC17978 and Acinetobacter baumannii ATCC17961.
Stock compounds in DMSO were serially twofold diluted (e.g. range from 50 to 0.097 μM final concentration) in 384 wells microtiter plates and inoculated with 49 μl the bacterial suspension in Iso-Sensitest medium to have a final cell concentration of ˜5×10^(5) CFU/ml in a final volume/well of 50 ul/well. Microtiter plates were incubated at 35±2° C.
Bacterial cell growth was determined with the measurement of optical density at λ=600 nm each 20 minutes over a time course of 16 h. Growth inhibition was calculated during the logarithmic growth of the bacterial cells with determination of the concentration inhibiting 50% (IC50) and 90% (IC90) of the growth.
Table 1 provides the 90% growth inhibitory concentrations (IC90) in micromoles per liter of the compounds of present invention obtained against the strain Acinetobacter baumannii ATCC17978 and Acinetobacter baumannii ATCC17961.

IC90 [nM]	Structure (SMILES)
1200	COc1ccc(-c2cnc3c(Nc4ccc(C(=O)N5CCC(C(=O)N6CCNC(C(=O)O)C6)CC5)c(Cl)c4)nccn23)cc1F (centres unmarked) [Example 59, 4-[1-[2-chloro-4-[[3-(3-fluoro-4-methoxyphenyl)imidazo[1,2-a]pyrazin-8-yl]amino]benzoyl]piperidine-4-carbonyl]piperazine-2-carboxylic acid]

Same assay, conditions: Acinetobacter baumannii, ATCC17978, 16 h, 90% growth inhibitory concentration, Acinetobacter baumannii ATCC17978, Iso-Sensitest broth, OD 600 nm over 16 h; read-out: ATCC17978 IC90

IC90 [nM]	Structure (SMILES)
330	COc1ccc(-c2cnc3c(Nc4ccc(C(=O)N5CCN(CCN6CCC6)CC5)c(Cl)c4)nccn23)cc1F [Example 57, [4-[2-(azetidin-1-yl)ethyl]piperazin-1-yl]-[2-chloro-4-[[3-(3-fluoro-4-methoxyphenyl)imidazo[1,2-a]pyrazin-8-yl]amino]phenyl]methanone]
330	COc1ccc(-c2cnc3c(Nc4ccc(C(=O)N5CCN(CCNC6CC6)CC5)c(Cl)c4)nccn23)cc1F [Example 58, [2-chloro-4-[[3-(3-fluoro-4-methoxyphenyl)imidazo[1,2-a]pyrazin-8-yl]amino]phenyl]-[4-[2-(cyclopropylamino)ethyl]piperazin-1-yl]methanone]
140	COc1ccc(-c2cnc3c(Nc4ccc(C(=O)N5CCC(C(=O)NCC(O)CN)CC5)c(Cl)c4)nccn23)cc1F (centres unmarked) [Example 60, N-(3-amino-2-hydroxypropyl)-1-[2-chloro-4-[[3-(3-fluoro-4-methoxyphenyl)imidazo[1,2-a]pyrazin-8-yl]amino]benzoyl]piperidine-4-carboxamide;hydrochloride]
580	COc1ccc(-c2cnc3c(Nc4ccc(C(=O)N5CCOCC5)cc4)nccn23)cc1 [Example 61, [4-[[3-(4-methoxyphenyl)imidazo[1,2-a]pyrazin-8-yl]amino]phenyl]-morpholin-4-ylmethanone]
900	COc1ccc(-c2cnc3c(Nc4ccc(C(=O)N5CCC(O)CC5)cc4)nccn23)cc1Cl [Example 62, [4-[[3-(3-chloro-4-methoxyphenyl)imidazo[1,2-a]pyrazin-8-yl]amino]phenyl]-(4-hydroxypiperidin-1-yl)methanone]
1100	COc1ccc(-c2cnc3c(Nc4ccc(C(=O)N5CCN(CCO)CC5)cc4)nccn23)cc1 [Example 63, [4-(2-hydroxyethyl)piperazin-1-yl]-[4-[[3-(4-methoxyphenyl)imidazo[1,2-a]pyrazin-8-yl]amino]phenyl]methanone]
1400	COc1ccc(-c2cnc3c(Nc4ccc(C(=O)N5CCN(C)CC5)cc4)nccn23)cc1 [Example 64, [4-[[3-(4-methoxyphenyl)imidazo[1,2-a]pyrazin-8-yl]amino]phenyl]-(4-methylpiperazin-1-yl)methanone]
1500	COc1ccc(-c2cnc3c(Nc4ccc(C(=O)N5CCCCC5)cc4)nccn23)cc1Cl [Example 65, [4-[[3-(3-chloro-4-methoxyphenyl)imidazo[1,2-a]pyrazin-8-yl]amino]phenyl]-piperidin-1-ylmethanone]
5900	COc1ccc(-c2cnc3c(Nc4ccc(C(=O)N5CCC(N(C)C)C5)cc4)nccn23)cc1 (centres unmarked) [Example 66, [3-(dimethylamino)pyrrolidin-1-yl]-[4-[[3-(4-methoxyphenyl)imidazo[1,2-a]pyrazin-8-yl]amino]phenyl]methanone]
170	O=C(c1ccc(Nc2nccn3c(-c4ccc(OC(F)F)cc4)cnc23)cc1Cl)N1CCC(N2CCNCC2)CC1 [Example 67, [2-chloro-4-[[3-[4-(difluoromethoxy)phenyl]imidazo [1,2-a]pyrazin-8-yl]amino]phenyl]-(4-piperazin-1-ylpiperidin-1-yl)methanone;hydrochloride]
110	COc1ccc(-c2cnc3c(Nc4ccc(C(=O)N5CCN(CCN(C)C)CC5)c(Cl)c4)nccn23)c(Cl)c1F [Example 68, [2-chloro-4-[[3-(2-chloro-3-fluoro-4-methoxyphenyl)imidazo[1,2-a]pyrazin-8-yl]amino]phenyl]-[4-[2-(dimethylamino)ethyl]piperazin-1-yl]methanone]
140	CN(C)CCN1CCN(C(=O)c2ccc(Nc3nccn4c(-c5ccc(OC(F)F)cc5)cnc34)cc2Cl)CC1 [Example 69, [2-chloro-4-[[3-[4-(difluoromethoxy)phenyl]imidazo[1,2-a]pyrazin-8-yl]amino]phenyl]-[4-[2-(dimethylamino)ethyl]piperazin-1-yl]methanone]
270	COc1ccc(-c2cnc3c(Nc4ccc(C(=O)N5CCC(C(=O)N6CCNC(CO)C6)CC5)c(Cl)c4)nccn23)cc1F (centres unmarked) [Example 70, [2-chloro-4-[[3-(3-fluoro-4-methoxyphenyl)imidazo[1,2-a]pyrazin-8-yl]amino]phenyl]-[4-[3-(hydroxymethyl)piperazine-1-carbonyl]piperidin-1-yl]methanone;hydrochloride]
280	COc1ccc(-c2cnc3c(Nc4ccc(C(=O)N5CCN(C6CCNC6)CC5)c(Cl)c4)nccn23)cc1F (centres unmarked) [Example 71, [2-chloro-4-[[3-(3-fluoro-4-methoxyphenyl)imidazo[1,2-a]pyrazin-8-yl]amino]phenyl]-(4-pyrrolidin-3-ylpiperazin-1-yl)methanone;hydrochloride]
510	COc1ccc(-c2cnc3c(Nc4ccc(C(=O)N5CCN(Cc6cnc[nH]6)CC5)c(Cl)c4)nccn23)cc1F [Example 72, [2-chloro-4-[[3-(3-fluoro-4-methoxyphenyl)imidazo[1,2-a]pyrazin-8-yl]amino]phenyl]-[4-(1H-imidazol-5-ylmethyl)piperazin-1-yl]methanone]
2700	COc1ccc(-c2cnc3c(Nc4ccc(C(=O)N5CCN(C)CC5)cc4)nccn23)cc1Cl [Example 74, [4-[[3-(3-chloro-4-methoxyphenyl)imidazo[1,2-a]pyrazin-8-yl]amino]phenyl]-(4-methylpiperazin-1-yl)methanone]
85	C#CCOc1ccc(-c2cnc3c(Nc4ccc(C(=O)N5CCC(CN)CC5)c(Cl)c4)nccn23)c(F)c1F [Example 75, [4-(aminomethyl)piperidin-1-yl]-[2-chloro-4-[[3-(2,3-difluoro-4-prop-2-ynoxyphenyl)imidazo[1,2-a]pyrazin-8-yl]amino]phenyl]methanone]
240	NCC1CCN(C(=O)c2ccc(Nc3nccn4c(-c5ccc(OCC#CCO)c(F)c5)cnc34)cc2Cl)CC1 [Example 76, [4-(aminomethyl)piperidin-1-yl]-[2-chloro-4-[[3-[3-fluoro-4-(4-hydroxybut-2-ynoxy)phenyl]imidazo[1,2-a]pyrazin-8-yl]amino]phenyl]methanone]
73	CNCC(=O)N1CCN(C(=O)c2ccc(Nc3nccn4c(-c5ccc(OCC#N)c(F)c5F)cnc34)cc2Cl)CC1 [Example 77, 2-[4-[8-[3-chloro-4-[4-[2-(methylamino)acetyl]piperazine-1-carbonyl]anilino]imidazo[1,2-a]pyrazin-3-yl]-2,3-difluorophenoxy]acetonitrile]
280	CN(C)CCN1CCN(C(=O)c2ccc(Nc3nccn4c(-c5ccc(OCC#N)c(F)c5F)cnc34)cc2Br)CC1 [Example 78, 2-[4-[8-[3-bromo-4-[4-[2-(dimethylamino)ethyl]piperazine-1-carbonyl]anilino]imidazo[1,2-a]pyrazin-3-yl]-2,3-difluorophenoxy]acetonitrile; formic acid]
160	N#CCOc1ccc(-c2cnc3c(Nc4ccc(C(=O)N5CCOCC5)c(Cl)c4)nccn23)c(F)c1F [Example 79, 2-[4-[8-[3-chloro-4-(morpholine-4-carbonyl)anilino]imidazo[1,2-a]pyrazin-3-yl]-2,3-difluorophenoxy]acetonitrile]
87	COc1ccc(-c2cnc3c(Nc4ccc(C(=O)N5CCC(CN)CC5)c(Br)c4)nccn23)cc1F [Example 80, [4-(aminomethyl)piperidin-1-yl]-[2-bromo-4-[[3-(3-fluoro-4-methoxyphenyl)imidazo[1,2-a]pyrazin-8-yl]amino]phenyl]methanone]
290	COc1ccc(-c2cnc3c(Nc4ccc(C(=O)N5CCN(CCN(C)C)CC5)c(Br)c4)nccn23)cc1F [Example 81, [2-bromo-4-[[3-(3-fluoro-4-methoxyphenyl)imidazo[1,2-a]pyrazin-8-yl]amino]phenyl]-[4-[2-(dimethylamino)ethyl]piperazin-1-yl]methanone;formic acid]

Same assay, conditions: Acinetobacter baumannii, ATCC17978, 16 h, read-out: ATCC17978 IC90

Structure (SMILES)	IC90 [nM]
COc1ccc(-c2cnc3c(Nc4ccc(C(=O)N5CCN(C6CNC6)CC5)c(Cl)c4)nccn23)cc1F [Example 73, [4-(azetidin-3-yl)piperazin-1-yl]-[2-chloro-4-[[3-(3-fluoro-4-methoxyphenyl)imidazo[1,2-a]pyrazin-8-yl]amino]phenyl]methanone; hydrochloride]	530
Cc1cc(Nc2nccn3c(-c4ccc(OC(F)F)cc4)cnc23)ccc1C(=O)N1CCN(C(=O)N2CCN[C@H](C(=O)O)C2)CC1 [Example 82, (2S)-4-[4-[4-[[3-[4-(difluoromethoxy)phenyl]imidazo [1,2-a]pyrazin-8-yl]amino]-2-methylbenzoyl]piperazine-1-carbonyl]piperazine-2-carboxylic acid;hydrochloride]	1000
